Assay results as given in PubChem BioAssay (NCI).
Values joined by “and” are separate entries in the source; they are usually repeats but may differ in a detail not shown here. Equal entries are not always repeated.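 Growth conditions: 96-well plates. Treatment: test compound, 48 hours, 5 concentrations. Analysis: linear interpolation between bracketing concentrations; unreached endpoints set to highest concentration. GI50 marks 50% less growth. Definition used: TGI = concentration required for complete inhibition of growth.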

How the values were obtained:
Assay in all cases: DTP human tumour cell line panel, 48 h
LOX IMVI melanoma = tested on: LOX IMVI melanoma
MCF7 breast = tested on: MCF7 breast
A498 renal = tested on: A498 renal
UO-31 renal = tested on: UO-31 renal
NCI-H522 lung = tested on: NCI-H522 lung
PC-3 prostate = tested on: PC-3 prostate
SNB-19 CNS = tested on: SNB-19 CNS
M14 melanoma = tested on: M14 melanoma
HCC-2998 colon = tested on: HCC-2998 colon
NCI-H460 lung = tested on: NCI-H460 lung

SMILES: CCC1CCc2nc3sc(C(=O)Nc4cccc(F)c4)c(N)c3cc2C1 (configuration not stated)
- GI50 (LOX IMVI melanoma): > 100 µM
- TGI (LOX IMVI melanoma): > 100 µM
- GI50 (MCF7 breast): 0.313 µM
- TGI (MCF7 breast): > 100 µM
- GI50 (A498 renal): 0.602 µM
- TGI (A498 renal): > 100 µM
- GI50 (UO-31 renal): > 100 µM
- TGI (UO-31 renal): > 100 µM
- GI50 (NCI-H522 lung): > 100 µM
- TGI (NCI-H522 lung): > 100 µM
- GI50 (PC-3 prostate): > 100 µM
- TGI (PC-3 prostate): > 100 µM
- GI50 (SNB-19 CNS): > 100 µM
- TGI (SNB-19 CNS): > 100 µM
- GI50 (M14 melanoma): 0.402 µM
- TGI (M14 melanoma): > 100 µM
- GI50 (HCC-2998 colon): > 100 µM
- TGI (HCC-2998 colon): > 100 µM
- GI50 (NCI-H460 lung): > 100 µM
- TGI (NCI-H460 lung): > 100 µM

SMILES: C[C@@H](CO)[C@@H]1CCC=C2CC[C@]3(C)[C@H](CC[C@@H]4[C@@]5(C)CCCNC(C)(C)[C@@H]5CC[C@]43C)[C@H]21
- GI50 (LOX IMVI melanoma): 1.74 µM
- TGI (LOX IMVI melanoma): 3.17 µM
- GI50 (MCF7 breast): 1.49 µM
- TGI (MCF7 breast): 3.02 µM
- GI50 (A498 renal): 5.41 µM
- TGI (A498 renal): 23 µM
- GI50 (UO-31 renal): 2.21 µM
- TGI (UO-31 renal): 6.8 µM
- GI50 (NCI-H522 lung): 1.85 µM
- TGI (NCI-H522 lung): 3.86 µM
- GI50 (PC-3 prostate): 2.97 µM
- TGI (PC-3 prostate): 13.4 µM
- GI50 (SNB-19 CNS): 2.03 µM
- TGI (SNB-19 CNS): 4.15 µM
- GI50 (M14 melanoma): 2.31 µM
- TGI (M14 melanoma): 5.13 µM
- GI50 (HCC-2998 colon): 1.62 µM
- TGI (HCC-2998 colon): 3.11 µM
- GI50 (NCI-H460 lung): 1.81 µM
- TGI (NCI-H460 lung): 3.39 µM

SMILES: COc1ccc(/C(C#N)=C/c2ccc(OC)c(OC)c2)cc1
- TGI (LOX IMVI melanoma): > 100 µM
- TGI (MCF7 breast): > 100 µM
- TGI (A498 renal): > 100 µM
- TGI (UO-31 renal): > 100 µM
- TGI (NCI-H522 lung): > 100 µM
- TGI (PC-3 prostate): > 100 µM
- TGI (SNB-19 CNS): > 100 µM
- TGI (M14 melanoma): > 100 µM
- TGI (HCC-2998 colon): > 100 µM
- TGI (NCI-H460 lung): > 100 µM

SMILES: CCNC(=O)c1cc2c(-c3cc(C(C)(C)O)ccc3Oc3c(C)cc(F)cc3C)cn(C)c(=O)c2[nH]1
- GI50 (LOX IMVI melanoma): 0.922 µM
- TGI (LOX IMVI melanoma): 2.74 µM
- GI50 (MCF7 breast): 0.521 µM
- TGI (MCF7 breast): 12.9 µM
- GI50 (A498 renal): 0.898 µM
- TGI (A498 renal): 4.84 µM
- GI50 (UO-31 renal): 0.1 µM
- TGI (UO-31 renal): 10.9 µM
- GI50 (NCI-H522 lung): 1.76 µM
- TGI (NCI-H522 lung): 14.2 µM
- GI50 (PC-3 prostate): 2.42 µM
- TGI (PC-3 prostate): 13.9 µM
- GI50 (SNB-19 CNS): 2.05 µM
- TGI (SNB-19 CNS): 14.2 µM
- GI50 (M14 melanoma): 1.46 µM
- TGI (M14 melanoma): 14.2 µM
- GI50 (HCC-2998 colon): 1.66 µM
- TGI (HCC-2998 colon): 4.03 µM
- GI50 (NCI-H460 lung): 3.3 µM
- TGI (NCI-H460 lung): 17.6 µM

SMILES: COc1cc(OC)c(/C=C/c2cnc3ccccc3n2)c(OC)c1
- TGI (LOX IMVI melanoma): > 10 µM
- TGI (MCF7 breast): > 10 µM
- TGI (A498 renal): > 10 µM
- TGI (UO-31 renal): 1.56 µM
- TGI (NCI-H522 lung): > 10 µM
- TGI (PC-3 prostate): > 10 µM
- TGI (SNB-19 CNS): > 10 µM
- TGI (M14 melanoma): > 10 µM
- TGI (HCC-2998 colon): > 10 µM
- TGI (NCI-H460 lung): > 10 µM

SMILES: N#Cc1c(N)nc(N2CCOCC2)c(C#N)c1-c1cccnc1
- GI50 (LOX IMVI melanoma): 63.1 µM
- TGI (LOX IMVI melanoma): > 100 µM
- GI50 (MCF7 breast): 55.8 µM
- TGI (MCF7 breast): > 100 µM
- GI50 (A498 renal): 27.5 µM
- TGI (A498 renal): 80.8 µM
- GI50 (UO-31 renal): 24.1 µM
- TGI (UO-31 renal): > 100 µM
- GI50 (NCI-H522 lung): 22.3 µM
- TGI (NCI-H522 lung): 81.7 µM
- GI50 (PC-3 prostate): 33.5 µM
- TGI (PC-3 prostate): > 100 µM
- GI50 (SNB-19 CNS): 77.2 µM
- TGI (SNB-19 CNS): > 100 µM
- GI50 (M14 melanoma): 71.2 µM
- TGI (M14 melanoma): > 100 µM
- GI50 (HCC-2998 colon): 8.8 µM
- TGI (HCC-2998 colon): 49.4 µM
- GI50 (NCI-H460 lung): > 100 µM
- TGI (NCI-H460 lung): > 100 µM

SMILES: Nc1nc(-c2ccc(F)cc2)c(-c2ccc3ncccc3n2)s1
- GI50 (LOX IMVI melanoma): 18 µM
- TGI (LOX IMVI melanoma): > 25 µM
- GI50 (MCF7 breast): 9 µM
- TGI (MCF7 breast): > 25 µM
- GI50 (A498 renal): 3.83 µM
- TGI (A498 renal): 19.4 µM
- GI50 (UO-31 renal): 4.68 µM
- TGI (UO-31 renal): > 25 µM
- GI50 (NCI-H522 lung): 8.31 µM
- TGI (NCI-H522 lung): > 25 µM
- GI50 (PC-3 prostate): 13.5 µM
- TGI (PC-3 prostate): > 25 µM
- GI50 (SNB-19 CNS): > 25 µM
- TGI (SNB-19 CNS): > 25 µM
- GI50 (M14 melanoma): > 25 µM
- TGI (M14 melanoma): > 25 µM
- GI50 (HCC-2998 colon): > 25 µM
- TGI (HCC-2998 colon): > 25 µM
- GI50 (NCI-H460 lung): 8.7 µM
- TGI (NCI-H460 lung): > 25 µM

SMILES: COc1ccc2c(c1)n([O-])c1ccccc1[n+]2=O
- GI50 (LOX IMVI melanoma): 29.5 µM and 7.2 µM
- TGI (LOX IMVI melanoma): > 100 µM and 31.6 µM
- GI50 (MCF7 breast): 20.3 µM and 8.97 µM
- TGI (MCF7 breast): > 100 µM and 36 µM
- GI50 (A498 renal): 82.6 µM and 18.3 µM
- TGI (A498 renal): > 100 µM and 60.4 µM
- TGI (UO-31 renal): 46 µM and 36.6 µM
- TGI (NCI-H522 lung): 53.4 µM and 32.1 µM
- GI50 (PC-3 prostate): 91.9 µM and 28.3 µM
- TGI (PC-3 prostate): > 100 µM and 73.1 µM
- GI50 (SNB-19 CNS): 51.6 µM and 20 µM
- TGI (SNB-19 CNS): > 100 µM and 89.6 µM
- GI50 (M14 melanoma): 62.1 µM and 7.9 µM
- TGI (M14 melanoma): > 100 µM and 21.7 µM
- TGI (HCC-2998 colon): > 100 µM
- GI50 (NCI-H460 lung): 16.8 µM and 5.54 µM
- TGI (NCI-H460 lung): > 100 µM and 34.3 µM

SMILES: COC(=O)C1=C(C)NC(C)=C(C(=O)OC)C1/C=C(Cl)/C=C/c1ccccc1
- GI50 (LOX IMVI melanoma): 15.1 µM
- TGI (LOX IMVI melanoma): 28.8 µM
- GI50 (MCF7 breast): 24.4 µM
- TGI (MCF7 breast): 78.5 µM
- GI50 (A498 renal): 16.8 µM
- TGI (A498 renal): 36 µM
- GI50 (UO-31 renal): 23.9 µM
- TGI (UO-31 renal): > 100 µM
- GI50 (NCI-H522 lung): 21.7 µM
- TGI (NCI-H522 lung): 72 µM
- GI50 (PC-3 prostate): 18.2 µM
- TGI (PC-3 prostate): 38.3 µM
- GI50 (SNB-19 CNS): 37.7 µM
- TGI (SNB-19 CNS): > 100 µM
- GI50 (M14 melanoma): 16.2 µM
- TGI (M14 melanoma): 30.5 µM
- GI50 (HCC-2998 colon): 14 µM
- TGI (HCC-2998 colon): 27.2 µM
- GI50 (NCI-H460 lung): 18.6 µM
- TGI (NCI-H460 lung): 45.4 µM

SMILES: O=C(NP(=O)(N1CC1)N1CC1)c1cc(I)ccc1I
- TGI (LOX IMVI melanoma): 54.8 µM
- TGI (MCF7 breast): > 100 µM
- TGI (A498 renal): > 100 µM
- TGI (UO-31 renal): > 100 µM
- TGI (NCI-H522 lung): > 92.9 µM
- TGI (PC-3 prostate): > 100 µM
- TGI (SNB-19 CNS): > 100 µM
- TGI (M14 melanoma): > 100 µM
- TGI (HCC-2998 colon): > 100 µM
- TGI (NCI-H460 lung): > 79 µM

SMILES: O=C(/C=C/c1cc([N+](=O)[O-])ccc1Cl)c1ccccc1
- GI50 (LOX IMVI melanoma): 2.6 µM
- TGI (LOX IMVI melanoma): 6.79 µM
- GI50 (MCF7 breast): 2.76 µM
- TGI (MCF7 breast): 17.4 µM
- GI50 (A498 renal): 12.8 µM
- TGI (A498 renal): 26.9 µM
- GI50 (UO-31 renal): 11.7 µM
- TGI (UO-31 renal): 26.4 µM
- GI50 (NCI-H522 lung): 15 µM
- TGI (NCI-H522 lung): 36.8 µM
- GI50 (PC-3 prostate): 24.5 µM
- TGI (PC-3 prostate): 82.9 µM
- GI50 (SNB-19 CNS): 13.3 µM
- TGI (SNB-19 CNS): 28.3 µM
- GI50 (M14 melanoma): 10.2 µM
- TGI (M14 melanoma): 22.5 µM
- GI50 (HCC-2998 colon): 3.3 µM
- TGI (HCC-2998 colon): 9.27 µM
- GI50 (NCI-H460 lung): 14.1 µM
- TGI (NCI-H460 lung): 33.7 µM

SMILES: CCOC(=O)C(=Cc1ccc(Oc2ccccc2)cc1)C(=O)OCC
- TGI (LOX IMVI melanoma): 3.22 µM
- TGI (MCF7 breast): 18.5 µM
- TGI (A498 renal): 28.8 µM
- TGI (UO-31 renal): 11.8 µM
- TGI (NCI-H522 lung): 10.1 µM
- TGI (PC-3 prostate): 6.12 µM
- TGI (SNB-19 CNS): 17.5 µM
- TGI (M14 melanoma): 9.6 µM
- TGI (HCC-2998 colon): 24 µM
- TGI (NCI-H460 lung): 40.7 µM
